Experiments:
[1] = molecular target: T1, GDP-mannose dehydrogenase (GMD) (Pseudomonas aeruginosa, UniProt P11759); experiment: NADH fluorescence assay, dilution series; type: biochemical
T1 construct: gene algD; recombinant GMD

[2] = molecular target: T1, GDP-mannose dehydrogenase (GMD); experiment: intact protein ESI-MS; type: binding; settings: covalent; overnight incubation; single adduct; site Lys324 only predicted by docking

T1 sequence (P11759 whole entry): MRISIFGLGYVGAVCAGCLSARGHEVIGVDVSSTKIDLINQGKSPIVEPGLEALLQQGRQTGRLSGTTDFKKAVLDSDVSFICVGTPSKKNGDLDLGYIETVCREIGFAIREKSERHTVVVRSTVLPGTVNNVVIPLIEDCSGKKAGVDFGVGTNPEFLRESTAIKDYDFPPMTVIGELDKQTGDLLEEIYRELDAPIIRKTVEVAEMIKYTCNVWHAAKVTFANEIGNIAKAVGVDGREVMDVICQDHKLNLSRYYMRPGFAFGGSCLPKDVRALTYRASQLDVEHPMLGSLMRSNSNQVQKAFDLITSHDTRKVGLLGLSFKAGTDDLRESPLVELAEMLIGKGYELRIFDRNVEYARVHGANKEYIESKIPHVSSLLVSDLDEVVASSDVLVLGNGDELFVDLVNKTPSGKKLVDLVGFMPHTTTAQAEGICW

SMILES: CC(=O)C1=C(O)C=C2Oc3c4c(c(C)c(O)c3[C@@]2(C)C1=O)O/C(=C\c1ccc(O)cc1)C4=O [compound 13, 13]
- IC50 [1]: 16.7 ± 2.12 µM
- intact protein ESI-MS [2]: ESI-MS indicated clear evidence of a single GMD-13 adduct

From publication PMC10619135, “Virtual screening, identification and in vitro validation of small molecule GDP-mannose dehydrogenase inhibitors” (RSC Chemical Biology, 2023)
